Consider eleven molecules from BindingDB's records for doi:10.1016/j.bmcl.2011.12.068 (Janssen Pharmaceutica, 2012).

In assay [1] the target is Transient receptor potential cation channel subfamily A member 1 (Homo sapiens, UniProt O75762). Kind of assay: Antagonist activity at human TRPA1 expressed in HEK293 cells assessed as inhibition of 5H-dibenzo[b,e]azepine-10-carboxylic acid methyl ester-induced increase in intracellular calcium by Fluo4-AM based fluorometric assay.
For assay [2], the target named is Transient receptor potential cation channel subfamily A member 1 (Rattus norvegicus, UniProt Q6RI86). Kind of assay: Antagonist activity at rat TRPA1 expressed in HEK293 cells assessed as inhibition of BITC-induced increase in intracellular calcium concentration by Fluo4-AM based fluorometric assay.

pIC50: −log10 of the molar value.

Chain of Transient receptor potential cation channel subfamily A member 1 (Rattus norvegicus, UniProt Q6RI86) (Q6RI86 whole entry E27K): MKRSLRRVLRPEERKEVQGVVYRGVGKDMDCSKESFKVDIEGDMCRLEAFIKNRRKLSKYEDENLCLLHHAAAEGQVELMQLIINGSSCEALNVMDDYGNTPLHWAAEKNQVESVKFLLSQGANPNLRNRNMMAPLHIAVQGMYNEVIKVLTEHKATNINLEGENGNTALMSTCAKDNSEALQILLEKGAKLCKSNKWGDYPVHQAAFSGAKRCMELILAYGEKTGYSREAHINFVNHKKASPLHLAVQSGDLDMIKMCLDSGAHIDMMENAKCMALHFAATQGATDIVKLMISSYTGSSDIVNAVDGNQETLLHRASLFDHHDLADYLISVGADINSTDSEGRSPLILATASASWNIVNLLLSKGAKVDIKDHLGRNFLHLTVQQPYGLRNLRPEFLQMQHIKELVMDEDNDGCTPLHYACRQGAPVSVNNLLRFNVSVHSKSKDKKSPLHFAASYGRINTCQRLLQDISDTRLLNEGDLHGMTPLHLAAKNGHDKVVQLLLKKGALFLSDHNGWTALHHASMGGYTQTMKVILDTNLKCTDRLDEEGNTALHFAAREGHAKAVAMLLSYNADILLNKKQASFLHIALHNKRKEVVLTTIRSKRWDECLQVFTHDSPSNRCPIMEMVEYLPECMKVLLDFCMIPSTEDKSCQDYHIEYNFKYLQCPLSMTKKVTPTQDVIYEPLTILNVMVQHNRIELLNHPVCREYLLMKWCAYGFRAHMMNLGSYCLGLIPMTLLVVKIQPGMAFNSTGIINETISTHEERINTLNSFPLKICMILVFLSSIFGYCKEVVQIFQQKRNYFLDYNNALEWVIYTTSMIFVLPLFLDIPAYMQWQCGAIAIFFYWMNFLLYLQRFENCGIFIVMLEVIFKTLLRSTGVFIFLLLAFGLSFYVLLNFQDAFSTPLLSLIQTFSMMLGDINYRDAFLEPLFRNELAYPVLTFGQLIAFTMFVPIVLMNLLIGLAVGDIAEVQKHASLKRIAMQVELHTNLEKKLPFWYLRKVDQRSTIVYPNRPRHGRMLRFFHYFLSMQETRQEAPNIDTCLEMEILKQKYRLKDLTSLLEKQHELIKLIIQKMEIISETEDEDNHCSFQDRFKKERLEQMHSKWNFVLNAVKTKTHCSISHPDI
Chain of Transient receptor potential cation channel subfamily A member 1 (Homo sapiens, UniProt O75762) (O75762 whole entry): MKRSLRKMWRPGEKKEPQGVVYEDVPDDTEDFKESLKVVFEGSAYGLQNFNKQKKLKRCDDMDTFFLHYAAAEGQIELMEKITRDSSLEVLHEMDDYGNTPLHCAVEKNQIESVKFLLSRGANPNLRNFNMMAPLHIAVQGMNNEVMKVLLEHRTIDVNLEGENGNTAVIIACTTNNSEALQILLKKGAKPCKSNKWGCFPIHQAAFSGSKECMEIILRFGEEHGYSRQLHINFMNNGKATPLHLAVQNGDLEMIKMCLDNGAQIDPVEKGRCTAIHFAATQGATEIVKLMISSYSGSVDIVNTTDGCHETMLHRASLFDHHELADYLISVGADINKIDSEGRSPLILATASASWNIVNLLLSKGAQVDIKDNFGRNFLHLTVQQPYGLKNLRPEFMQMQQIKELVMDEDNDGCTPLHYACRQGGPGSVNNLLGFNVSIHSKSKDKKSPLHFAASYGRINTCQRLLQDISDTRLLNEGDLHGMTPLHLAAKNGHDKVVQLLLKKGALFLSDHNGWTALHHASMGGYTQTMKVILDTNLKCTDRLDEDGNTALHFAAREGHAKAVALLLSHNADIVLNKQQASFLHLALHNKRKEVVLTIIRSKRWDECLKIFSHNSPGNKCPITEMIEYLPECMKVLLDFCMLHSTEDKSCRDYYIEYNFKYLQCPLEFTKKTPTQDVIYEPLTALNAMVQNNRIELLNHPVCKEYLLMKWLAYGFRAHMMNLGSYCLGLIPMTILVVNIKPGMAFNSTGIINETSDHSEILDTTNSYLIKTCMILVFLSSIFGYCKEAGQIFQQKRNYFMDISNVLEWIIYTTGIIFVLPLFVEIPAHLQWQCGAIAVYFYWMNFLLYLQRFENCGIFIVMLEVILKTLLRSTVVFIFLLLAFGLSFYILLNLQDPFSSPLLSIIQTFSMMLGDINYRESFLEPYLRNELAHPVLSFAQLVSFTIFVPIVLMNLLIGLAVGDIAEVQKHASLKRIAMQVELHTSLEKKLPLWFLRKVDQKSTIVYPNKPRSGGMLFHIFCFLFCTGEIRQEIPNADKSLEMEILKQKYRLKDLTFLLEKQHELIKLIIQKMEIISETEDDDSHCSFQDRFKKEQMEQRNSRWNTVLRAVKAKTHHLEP

In the case of `S=C1N=C2CCCCC2C(c2ccccc2)N1` (stereo not given), the pIC50 in assay [1] is below 5.00.
With `S=C1N=C2C(=Cc3ccccc3)CCCC2C(c2ccccc2)N1` (stereo not given), the pIC50 in assay [1] was below 5.00.
For the molecule `CN(C)CCCOc1cccc(C2NC(=S)N=C3c4ccccc4C(=O)C32)c1` (stereo not given), the pIC50 in assay [2] and in assay [1] was below 5.00 in each case.
For `COc1ccc(OC)c(C2NC(=S)N=C3c4ccccc4C(=O)C32)c1` (stereo not given), the pIC50 in assay [2] and in assay [1] was below 5.00 each time.
Turning to `S=C1N=C2CCCC2C(c2ccccc2)N1` (stereo not given), in assay [1], the pIC50 is below 5.00.
On the same count and under the same terms, in the case of `S=C1N=C2c3ccccc3CCC2C(c2ccccc2)N1` (stereo not given) it was below 5.00.
In the case of `O=C(O)c1cccc(C2NC(=S)N=C3c4ccccc4C(=O)C32)c1` (stereo not given), the pIC50 in assay [2] and in assay [1] was below 5.00 each time.
Take `O=C1CCCC2=NC(=S)NC(c3ccccc3)C12` (stereo not given): in assay [1], the pIC50 was below 5.00.
Same read-out and setting: in the case of `S=C1N=C(c2ccccc2)CC(c2ccccc2)N1` (stereo not given) it was below 5.00.
As to `O=C1N=C2c3ccccc3C(=O)C2C(c2ccccc2)N1` (stereo not given), the pIC50 in assay [2] and in assay [1] was below 5.00 throughout.
Consider `CC1=NC(=S)NC(c2ccccc2)C1C(=O)c1ccccc1` (stereo not given), for which the pIC50 in assay [1] was below 5.00.
